# Results as given in US11464802B2, “3-substituted piperidine compounds for Cbl-b inhibition, and use thereof” (Nurix Therapeutics, Inc., priority 2019, dated 2022).
# Read-outs that look alike come from different tables or passages of the source.
# Tests used:
# [1] = system: primary human total T-cells; assay: Primary human total T-cell activation: IL-2 secretion, Biological Example 2; format: cell-based; conditions: 48 hours, fold change over baseline; for fold induction at 0.3 µM: inhibitor 0.3 μM; for fold induction at 1 µM: inhibitor 1 μM; for fold induction at 3 µM: inhibitor 3 μM
# Cbl-b = Cbl-b (Homo sapiens (Human), UniProt Q13191); assay: Cbl-b displacement assay (Cbl-b inhibition assay), TR-FRET probe displacement, Biological Example 1; format: binding
# Sequence of Cbl-b (Q13191 36-427): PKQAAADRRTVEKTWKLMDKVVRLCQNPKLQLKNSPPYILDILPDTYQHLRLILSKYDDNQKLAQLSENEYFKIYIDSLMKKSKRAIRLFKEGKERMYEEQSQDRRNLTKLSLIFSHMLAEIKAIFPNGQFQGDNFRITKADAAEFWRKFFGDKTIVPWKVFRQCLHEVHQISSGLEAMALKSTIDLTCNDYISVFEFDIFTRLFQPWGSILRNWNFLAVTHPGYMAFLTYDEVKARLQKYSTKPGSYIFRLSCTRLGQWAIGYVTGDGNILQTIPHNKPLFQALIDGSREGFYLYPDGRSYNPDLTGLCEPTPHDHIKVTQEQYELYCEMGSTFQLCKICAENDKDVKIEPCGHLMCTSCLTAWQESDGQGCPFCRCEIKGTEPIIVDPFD
# Method: Candidate compounds were evaluated for their ability to bind and inhibit Cbl-b, an E3 ubiquitin-protein ligase, as evidenced by their ability to displace a fluorophore-labeled probe (Example 46) bound to Cbl-b.
# The ability of candidate compounds to displace a known inhibitor and thereby inhibit Cbl-b activity was measured by monitoring the interaction of Cbl-b with a fluorophore-labeled probe in the presence of the candidate compound. A truncated variant of Cbl-b (UniProt number Q13191; SEQ ID NO:1) containing an Avitag at its N-terminus was co-expressed with BirA biotin ligase and purified using a standard protocol (see Dou et al., Nature Structural and Molecular Biology 8: 982-987, 2013; Avidity LLC).
# Fluorescently-labeled inhibitor probe was synthesized and tagged with BODIPY FL (Example 46). Cbl-b displacement assays were performed in a 384-well plate at room temperature in a 10 μL reaction volume by pre-incubating 0.5 nM Cbl-b or 0.125 nM Cbl-b (final concentration, indicated as “High” and “Low”, respectively) in an assay buffer containing 20 mM HEPES pH 7.5, 150 mM NaCl, 0.01% Triton X-100, 0.01% BSA, and 0.5 mM TCEP in the presence of a candidate compound in 1% DMSO (final concentration) for 1 hour. After incubation in the presence of the candidate compound, the plate was incubated for an additional 1 hour in the presence of an approximate EC40 binding saturation consisting of 150 nM fluorescently-labeled inhibitor probe and 2 nM Streptavidin-Terbium (Cisbio) (final concentrations). Following the 1 hour incubation, the plates were read for TR-FRET signal at 520/620 nM using an Envision plate reader (Perkin Elmer).
# [2] = system: primary human total T-cells; assay: Primary human total T-cell activation: CD25 surface staining, Biological Example 2; format: cell-based; conditions: 48 hours, fold change over baseline; for fold induction at 0.3 µM: inhibitor 0.3 μM; for fold induction at 1 µM: inhibitor 1 μM; for fold induction at 3 µM: inhibitor 3 μM
# [3] = anti-CD3/anti-CD28 co-stimulation
# [4] = anti-CD3/anti-CD28 co-stimulation, read-out: IL-2 secretion CD3/CD28 1 μM
# [5] = anti-CD3 alone, read-out: IL-2 secretion CD3 1 μM
# [6] = 0.125 nM Cbl-b final concentration (Low), read-out: Cbl-b activity IC50 (Low)
# [7] = anti-CD3/anti-CD28 co-stimulation, read-out: CD25 staining CD3/CD28 1 μM
# [8] = anti-CD3 alone, read-out: CD25 staining CD3 1 μM
# [9] = Cbl-b concentration (High or Low) not given, read-out: IC50 values in the Cbl-b inhibition assay of Biological Example 1
# [10] = 0.5 nM Cbl-b final concentration (High), read-out: Cbl-b activity IC50 (High)
SMILES,IC50 (Cbl-b; [6]),IC50 (Cbl-b; [9]),IC50 (Cbl-b; [10]),"fold induction at 0.3 µM [1, 3]","fold induction at 1 µM [1, 4]","fold induction at 1 µM [1, 5]",fold induction at 3 µM ([1]; anti-CD3 alone),"fold induction at 0.3 µM [2, 3]","fold induction at 1 µM [2, 7]","fold induction at 1 µM [2, 8]",fold induction at 3 µM ([2]; anti-CD3 alone)
"Cn1cnnc1CC1(c2cccc(N3Cc4c(cc(CN5CCC[C@H](C#N)C5)cc4C(F)(F)F)C3=O)c2)COC1 [Compound 18, (S)-1-((2-(3-(3-((4-methyl-4H-1,2,4-triazol-3-yl)methyl)oxetan-3-yl)phenyl)-3-oxo-7-(trifluoromethyl)isoindolin-5-yl)methyl)piperidine-3-carbonitrile]",1 to 5 nM,–,–,< 10,11 to 15,< 0.33,0.34 to 0.66,1.25 to 1.39,1.25 to 1.39,> 1.14,> 1.14
"Cn1cnnc1CC1(c2cccc(N3Cc4c(cc(CN5CCCC(C)(F)C5)cc4C(F)(F)F)C3=O)c2)COC1 (stereo in doubt) [Compound 5, (R)-6-((3-fluoro-3-methylpiperidin-1-yl)methyl)-2-(3-(3-((4-methyl-4H-1,2,4-triazol-3-yl)methyl)oxetan-3-yl)phenyl)-4-(trifluoromethyl) isoindolin-1-one]",5.1 to 100 nM,–,–,11 to 15,> 15,< 0.33,0.34 to 0.66,> 1.39,> 1.39,> 1.14,> 1.14
"Cn1cnnc1CC1(c2cccc(N3Cc4c(cc(CN5CCC(F)(F)[C@H](CO)C5)cc4C(F)(F)F)C3=O)c2)COC1 [Compound 15, (S)-6-((4,4-difluoro-3-(hydroxymethyl)piperidin-1-yl)methyl)-2-(3-(3-((4-methyl-4H-1,2,4-triazol-3-yl)methyl)oxetan-3-yl)phenyl)-4-(trifluoromethyl)isoindolin-1-one]",–,–,1 to 5 nM,< 10,11 to 15,< 0.33,0.34 to 0.66,< 1.24,< 1.24,1.05 to 1.14,1.05 to 1.14
"Cn1cnnc1CC1(c2cccc(N3Cc4c(cc(CN5CCCC6(COC6)C5)cc4C(F)(F)F)C3=O)c2)COC1 [Compound 12, 6-((2-oxa-6-azaspiro[3.5]nonan-6-yl)methyl)-2-(3-(3-((4-methyl-4H-1,2,4-triazol-3-yl)methyl)oxetan-3-yl)phenyl)-4-(trifluoromethyl)isoindolin-1-one]",–,5.1 to 100 nM,5.1 to 100 nM,< 10,11 to 15,< 0.33,< 0.33,1.25 to 1.39,1.25 to 1.39,< 1.04,1.05 to 1.14
"Cn1cnnc1CC1(c2cccc(N3Cc4c(cc(CN5C[C@@H](C(F)(F)F)C[C@H](C(F)(F)F)C5)cc4C(F)(F)F)C3=O)c2)COC1 (relative stereo) [Compound 20, trans-6-{[3,5-bis(trifluoromethyl)piperidin-1-yl]methyl}-2-(3-{3-[(4-methyl-1,2,4-triazol-3-yl)methyl]oxetan-3-yl}phenyl)-4-(trifluoromethyl)-3H-isoindol-1-one]",1 to 5 nM,–,–,–,–,–,–,–,–,–,–

# More lines, main results first:
IC50 (Cbl-b; [6]),IC50 (Cbl-b; [9]),IC50 (Cbl-b; [10]),SMILES,"fold induction at 0.3 µM [1, 3]","fold induction at 1 µM [1, 4]","fold induction at 1 µM [1, 5]",fold induction at 3 µM ([1]; anti-CD3 alone),"fold induction at 0.3 µM [2, 3]","fold induction at 1 µM [2, 7]","fold induction at 1 µM [2, 8]",fold induction at 3 µM ([2]; anti-CD3 alone)
1 to 5 nM,–,–,"CCNc1cc(C2(Cc3nncn3C)COC2)cc(N2Cc3c(cc(CN4CCC[C@H](C)C4)nc3C3CC3)C2=O)n1 [Compound 43, 4-cyclopropyl-2-[6-(ethylamino)-4-{3-[(4-methyl-1,2,4-triazol-3-yl)methyl]oxetan-3-yl}pyridin-2-yl]-6-{[(3S)-3-methylpiperidin-1-yl]methyl}-3H-pyrrolo[3,4-c]pyridin-1-one]",> 15,> 15,> 0.66,> 0.66,> 1.39,> 1.39,> 1.14,> 1.14
1 to 5 nM,1 to 5 nM,–,"C[C@@H]1CN(Cc2cc3c(c(C(F)(F)F)c2)CN(c2cccc(C4(Cc5nncn5C(F)F)COC4)c2)C3=O)CCC1(F)F [Compound 31, (R)-6-((4,4-difluoro-3-methylpiperidin-1-yl)methyl)-2-(3-(3-((4-(difluoromethyl)-4H-1,2,4-triazol-3-yl)methyl)oxetan-3-yl)phenyl)-4-(trifluoromethyl)isoindolin-1-one]",> 15,> 15,> 0.66,> 0.66,> 1.39,> 1.39,< 1.04,< 1.04
–,1 to 5 nM,1 to 5 nM,"C[C@@H]1C[C@H](C)CN(Cc2cc3c(c(C(F)(F)F)c2)CN(c2cccc(-c4c(-c5nncn5C)cnn4C)c2)C3=O)C1 [Compound 45, 6-((cis-3,5-dimethylpiperidin-1-yl)methyl)-2-(3-(1-methyl-4-(4-methyl-4H-1,2,4-triazol-3-yl)-1H-pyrazol-5-yl)phenyl)-4-(trifluoromethyl)isoindolin-1-one]",11 to 15,11 to 15,0.34 to 0.66,0.34 to 0.66,1.25 to 1.39,< 1.24,< 1.04,< 1.04
–,1 to 5 nM,1 to 5 nM,"CC1CN(Cc2cc3c(c(C(F)(F)F)c2)CN(c2cccc(C4([C@@H](F)c5nncn5C)CC4)c2)C3=O)CCC1(F)F (stereo partly drawn) [Compound 26, 6-((4,4-difluoro-3-methylpiperidin-1-yl)methyl)-2-(3-(1-((R)-fluoro(4-methyl-4H-1,2,4-triazol-3-yl)methyl)cyclopropyl)phenyl)-4-(trifluoromethyl)isoindolin-1-one]",–,–,–,–,–,–,–,–
1 to 5 nM,1 to 5 nM,–,"C[C@H]1CCCN(Cc2cc3c(c(C(F)(F)F)c2)CN(c2cc(C4(Cc5nncn5C)COC4)ccn2)C3=O)C1 [Compound 48, (S)-2-(4-(3-((4-methyl-4H-1,2,4-triazol-3-yl)methyl)oxetan-3-yl)pyridin-2-yl)-6-((3-methylpiperidin-1-yl)methyl)-4-(trifluoromethyl)isoindolin-1-one]",> 15,> 15,> 0.66,> 0.66,> 1.39,> 1.39,> 1.14,> 1.14
–,1 to 5 nM,1 to 5 nM,"CC1CN(Cc2cc3c(c(C(F)(F)F)c2)CN(c2cccc(C4([C@H](F)c5nncn5C)CC4)c2)C3=O)CCC1(F)F (stereo partly drawn) [Compound 25, 6-((4,4-difluoro-3-methylpiperidin-1-yl)methyl)-2-(3-(1-((S)-fluoro(4-methyl-4H-1,2,4-triazol-3-yl)methyl)cyclopropyl)phenyl)-4-(trifluoromethyl)isoindolin-1-one]",–,–,–,–,–,–,–,–
–,< 1 nM,< 1 nM,"CC1CN(Cc2cc3c(c(C(F)(F)F)c2)CN(c2cccc(C4(Cc5nncn5C)CC4)c2)C3=O)CCC1(F)F (centres unmarked) [Compound 24, 6-((4,4-difluoro-3-methylpiperidin-1-yl)methyl)-2-(3-(1-((4-methyl-4H-1,2,4-triazol-3-yl)methyl)cyclopropyl)phenyl)-4-(trifluoromethyl)isoindolin-1-one]",–,–,–,–,–,–,–,–
